Reference: PubChem BioAssay AID210 (DTP/NCI, 2004)
Inconclusive results and toxic doses are left out. How the source made its calls: active means survival T/C of 150% or more; inactive means T/C below 125% in these data.

Tested on: CD2F1 mice, ip Colon 26 adenocarcinoma, median survival T/C
Assay: NCI In Vivo Anticancer Drug Screen. Data for tumor model Colon 26 Adenocarcinoma (intraperitoneal) in CD2F1 (CDF1) mice
Conditions: endpoint: median survival time, higher = longer survival
Procedure: The antitumor activity of compounds was measured in mice bearing transplantable tumors. Survival or tumor size were measured and the results are expressed as the measurement made in the treated group (T) divided by the measurement made in the vehicle treated control group (C). The tumor model used in this assay is Colon 26 Adenocarcinoma (intraperitoneal) in CD2F1 (CDF1) mice

[1] = dose: 12.5 mg/kg/injection, schedule: Q04DX003 (ip), vehicle: saline with Tween-80
[2] = dose: 25.0 mg/kg/injection, schedule: Q04DX003 (ip), vehicle: saline with Tween-80
[3] = dose: 50.0 mg/kg/injection, schedule: Q04DX003 (ip), vehicle: saline with Tween-80
[4] = dose: 6.25 mg/kg/injection, schedule: Q04DX002 (ip), vehicle: Klucel (hydroxypropylcellulose) (HPC)
[5] = dose: 12.5 mg/kg/injection, schedule: Q04DX002 (ip), vehicle: Klucel (hydroxypropylcellulose) (HPC)
[6] = dose: 100.0 mg/kg/injection, schedule: Q04DX003 (ip), vehicle: saline with Tween-80
[7] = dose: 200.0 mg/kg/injection, schedule: Q04DX003 (ip), vehicle: saline with Tween-80

Measured: T/C

CN1C(=O)CC2(CCN(CCCC(=O)c3ccc(F)cc3)CC2)C1=O
inactive: dose: 3.12 mg/kg/injection, schedule: Q04DX003 (ip), vehicle: saline with Tween-80 96 % of control | dose: 6.25 mg/kg/injection, schedule: Q04DX003 (ip), vehicle: saline with Tween-80 98 % of control | [1] 100 % of control | [2] 100 % of control | [3] 102 % of control

C[C@]12CC[C@@H]3c4ccc(O)cc4CC[C@H]3[C@@H]1CC[C@@H]2O
inactive: [4] 103 % of control | [5] 95 % of control | dose: 25.0 mg/kg/injection, schedule: Q04DX002 (ip), vehicle: Klucel (hydroxypropylcellulose) (HPC) 94 % of control | dose: 50.0 mg/kg/injection, schedule: Q04DX002 (ip), vehicle: Klucel (hydroxypropylcellulose) (HPC) 103 % of control | dose: 100.0 mg/kg/injection, schedule: Q04DX002 (ip), vehicle: Klucel (hydroxypropylcellulose) (HPC) 100 % of control | dose: 200.0 mg/kg/injection, schedule: Q04DX002 (ip), vehicle: Klucel (hydroxypropylcellulose) (HPC) 98 % of control

Clc1ccc(C(c2ccccc2Cl)C(Cl)Cl)cc1 (centres undefined)
inactive: [2] 110 % of control | [3] 98 % of control | [6] 96 % of control | [7] 104 % of control | dose: 400.0 mg/kg/injection, schedule: Q04DX003 (ip), vehicle: saline with Tween-80 96 % of control

N=C(N)Sc1ccccn1
inactive: dose: 12.5 mg/kg/injection, schedule: Q04DX003 (ip), vehicle: saline 94 % of control | dose: 25.0 mg/kg/injection, schedule: Q04DX003 (ip), vehicle: saline 101 % of control | dose: 50.0 mg/kg/injection, schedule: Q04DX003 (ip), vehicle: saline 91 % of control | dose: 100.0 mg/kg/injection, schedule: Q04DX003 (ip), vehicle: saline 91 % of control

COc1cccc2c1C(=O)c1c(O)c3c(c(O)c1C2=O)C[C@@](O)(C(C)=O)C[C@@H]3OC1CC(O)C(O)C(C)O1 (some centres undefined)
inactive: dose: 31.0 mg/kg/injection, schedule: Q07DX002 (iv), vehicle: saline 108 % of control

CC(=O)OCC(=O)[C@@]12OC(C)(C)O[C@@H]1C[C@H]1[C@@H]3CC(C=O)=C4C=C(OCCCl)CC[C@]4(C)[C@@]3(F)[C@@H](O)C[C@@]12C
inactive: dose: 0.39 mg/kg/injection, schedule: Q04DX002 (ip), vehicle: Klucel (hydroxypropylcellulose) (HPC) 94 % of control | dose: 0.78 mg/kg/injection, schedule: Q04DX002 (ip), vehicle: Klucel (hydroxypropylcellulose) (HPC) 89 % of control | dose: 1.56 mg/kg/injection, schedule: Q04DX002 (ip), vehicle: Klucel (hydroxypropylcellulose) (HPC) 93 % of control | dose: 3.13 mg/kg/injection, schedule: Q04DX002 (ip), vehicle: Klucel (hydroxypropylcellulose) (HPC) 95 % of control | [4] 91 % of control | [5] 88 % of control

N=c1ccn2c(n1)OC1C(O)C(CO)OC12 (centres undefined)
inactive: dose: 111.0 mg/kg/injection, schedule: Q01DX009 (ip), vehicle: saline with Tween-80 110 % of control | dose: 167.0 mg/kg/injection, schedule: Q01DX009 (ip), vehicle: saline with Tween-80 115 % of control | dose: 250.0 mg/kg/injection, schedule: Q01DX009 (ip), vehicle: saline with Tween-80 121 % of control

C[C@]12C=CC(=O)C=C1CC[C@@H]1[C@@H]2C(=O)C[C@@]2(C)[C@H]1CC[C@]2(O)C(=O)CO
inactive: dose: 25.0 mg/kg/injection, schedule: Q04DX003 (ip), vehicle: Klucel (hydroxypropylcellulose) (HPC) 105 % of control | dose: 50.0 mg/kg/injection, schedule: Q04DX003 (ip), vehicle: Klucel (hydroxypropylcellulose) (HPC) 100 % of control | dose: 100.0 mg/kg/injection, schedule: Q04DX003 (ip), vehicle: Klucel (hydroxypropylcellulose) (HPC) 100 % of control | dose: 200.0 mg/kg/injection, schedule: Q04DX003 (ip), vehicle: Klucel (hydroxypropylcellulose) (HPC) 96 % of control | dose: 400.0 mg/kg/injection, schedule: Q04DX003 (ip), vehicle: Klucel (hydroxypropylcellulose) (HPC) 98 % of control

CN1C(=O)NC(c2ccc(Cl)cc2)(c2ccc(Cl)cc2)C1=O
inactive: dose: 12.5 mg/kg/injection, schedule: Q04DX002 (ip), vehicle: distilled water + Tween-80 106 % of control | dose: 12.5 mg/kg/injection, schedule: Q04DX002 (ip), vehicle: saline with Tween-80 105 % of control | dose: 25.0 mg/kg/injection, schedule: Q04DX002 (ip), vehicle: distilled water + Tween-80 100 % of control | dose: 25.0 mg/kg/injection, schedule: Q04DX002 (ip), vehicle: saline with Tween-80 111 % of control | dose: 50.0 mg/kg/injection, schedule: Q04DX002 (ip), vehicle: distilled water + Tween-80 114 % of control | dose: 50.0 mg/kg/injection, schedule: Q04DX002 (ip), vehicle: saline with Tween-80 97 % of control | dose: 100.0 mg/kg/injection, schedule: Q04DX002 (ip), vehicle: saline with Tween-80 102 % of control | dose: 200.0 mg/kg/injection, schedule: Q04DX002 (ip), vehicle: saline with Tween-80 91 % of control | dose: 400.0 mg/kg/injection, schedule: Q04DX002 (ip), vehicle: saline with Tween-80 91 % of control

CC1(C)CC23C4COC(=O)C2CCC1C3CC4=O (centres undefined)
inactive: dose: 36.0 mg/kg/injection, schedule: Q04DX003 (ip), vehicle: DMSO 99 % of control | dose: 62.5 mg/kg/injection, schedule: Q04DX002 (ip), vehicle: saline with Tween-80 109 % of control | dose: 72.0 mg/kg/injection, schedule: Q04DX003 (ip), vehicle: DMSO 93 % of control | dose: 125.0 mg/kg/injection, schedule: Q04DX002 (ip), vehicle: saline with Tween-80 91 % of control | dose: 144.0 mg/kg/injection, schedule: Q04DX003 (ip), vehicle: DMSO 94 % of control

CC1(CO)C(=O)CCC2(C)C1CCC1CC3CC12CCC3(O)CO (centres undefined)
inactive: dose: 37.5 mg/kg/injection, schedule: Q04DX002 (ip), vehicle: distilled water + Tween-80 97 % of control | dose: 75.0 mg/kg/injection, schedule: Q04DX002 (ip), vehicle: distilled water + Tween-80 101 % of control | dose: 150.0 mg/kg/injection, schedule: Q04DX002 (ip), vehicle: distilled water + Tween-80 94 % of control

Cc1cc(C)c(-c2cc(O)c(C)cc2O)c(C)c1
inactive: [1] 107 % of control | [2] 109 % of control | [3] 106 % of control | [6] 112 % of control | [7] 112 % of control

CC/C(=C(/CC)c1ccc(O)cc1)c1ccc(O)cc1
inactive: [2] 91 % of control | [3] 103 % of control | [6] 89 % of control

C/C=C(\C)C(=O)OC1C(C)C2(O)C(C=C(CO)CC3(O)C(=O)C(C)=CC32)C2C(C)(C)C12OC(=O)CCCCCCCCC (centres undefined)
inactive: dose: 0.03 mg/kg/injection, schedule: Q04DX003 (ip), vehicle: saline + alcohol 93 % of control | dose: 0.06 mg/kg/injection, schedule: Q04DX003 (ip), vehicle: saline + alcohol 86 % of control | dose: 0.13 mg/kg/injection, schedule: Q04DX003 (ip), vehicle: saline + alcohol 90 % of control | dose: 0.25 mg/kg/injection, schedule: Q04DX003 (ip), vehicle: saline + alcohol 86 % of control
